Assay results as given in patent US20260347333A1, “NOVEL COMPOUND AND USE THEREOF” (PROTIER BIOTECH INC., priority 2023, published 2026).

Target: T1, Cereblon (CRBN) protein (Homo sapiens, UniProt Q96SW2)
T1 construct: DNA label for qPCR detection (not a peptide tag); host or cells: HEK-293
Assay: CRBN binding affinity, E3scan (% Ctrl)
Conditions: lower % Ctrl = stronger binding, DMSO 100% Ctrl
Description: As used herein, the term “Cereblon (CRBN)” refers to a protein encoded by a human CRBN gene located at a cytogenetic location of 3p26.2 and a molecular location between base pairs 3,148,489 and 3,179,716 on chromosome 3 (UCSC Genome Browser on Human, December 2013 (GRCh38/hg38) assembly). CRBN is a substrate recognition component of a DCX (DDB1-CUL4-X-box) E3 protein ligase complex mediating ubiquitination and subsequent proteasomal degradation of a target protein. The DCX (DDB1-CUL4-X-box) E3 protein ligase complex may comprise at least CRBN, CUL4A, DDB1, and RBX1. The CRBN protein has two isoforms generated by alternative splicing: isoform 1 has 442 amino acids and a molecular weight of 50,546 Da; and isoform 2 has 441 amino acids and a molecular weight of 50,475 Da.
To confirm the binding affinity of the compounds synthesized in the Preparation Examples for a Cereblon (CRBN) protein, the following experiment was performed using E3scan™ from Eurofins.
Specifically, CRBN was produced using a HEK-293 cell line and labeled with DNA for qPCR detection. Streptavidin-coated magnetic beads were treated with a biotinylated small-molecule ligand at room temperature for 30 minutes to generate an affinity resin for E3scan analysis. The liganded beads were blocked with excess biotin and washed with a blocking buffer (SeaBlock (Pierce), 1% BSA, 0.05% Tween 20, 1 mM DTT) to remove unbound ligands and prevent non-specific binding. […] The test compound was prepared as a 100× stock in 100% DMSO and diluted directly into the assay solution. All reactions were performed in a polypropylene 384-well plate with a final reaction volume of 0.02 mL. […] Then, the beads were resuspended in an elution buffer (1×PBS, 0.05% Tween 20, 0.5 μM non-biotinylated affinity ligand) and incubated with shaking at room temperature for 30 minutes. The CRBN concentration in the eluate was measured by qPCR. […] A lower ‘% Ctrl’ indicates a stronger binding affinity.

T1 sequence (Q96SW2 whole entry): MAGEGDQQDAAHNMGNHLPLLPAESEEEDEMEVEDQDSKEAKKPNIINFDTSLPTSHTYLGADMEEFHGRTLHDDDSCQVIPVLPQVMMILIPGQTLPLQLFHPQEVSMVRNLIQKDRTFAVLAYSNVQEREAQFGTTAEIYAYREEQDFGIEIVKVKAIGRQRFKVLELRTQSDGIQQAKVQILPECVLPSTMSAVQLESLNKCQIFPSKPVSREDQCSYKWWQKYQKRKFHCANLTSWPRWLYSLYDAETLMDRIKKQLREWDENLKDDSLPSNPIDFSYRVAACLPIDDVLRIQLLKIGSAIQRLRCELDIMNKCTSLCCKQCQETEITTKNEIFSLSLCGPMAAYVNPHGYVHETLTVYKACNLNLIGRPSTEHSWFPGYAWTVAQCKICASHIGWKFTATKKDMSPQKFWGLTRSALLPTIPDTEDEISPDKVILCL

SMILES	remaining activity at 5 µM
O=C1CCC(N2Cc3cc(C(=O)c4ccccc4)ccc3C2=O)C(=O)N1 (stereo not shown) [Compound 1, 3-(5-benzoyl-1-oxoisoindolin-2-yl)piperidine-2,6-dione]	1 to 10%
O=C1CCC(N2Cc3cc(C(=O)c4cc5ccccc5o4)ccc3C2=O)C(=O)N1 (stereo not shown) [Compound 34, 3-(5-(benzofuran-2-carbonyl)-1-oxoisoindolin-2-yl)piperidine-2,6-dione]	0 to 0.1%
O=C1CCC(N2Cc3cc(C(=O)c4ccc(Nc5ccccc5)cc4)ccc3C2=O)C(=O)N1 (stereo not shown) [Compound 15, 3-(1-oxo-5-(4-(phenylamino)benzoyl)isoindolin-2-yl)piperidine-2,6-dione]	0 to 0.1%
O=C1CCC(N2Cc3cc(C(=O)c4c[nH]c5ccccc45)ccc3C2=O)C(=O)N1 (stereo not shown) [Compound 4, 3-(5-(1H-indole-3-carbonyl)-1-oxoisoindolin-2-yl)piperidine-2,6-dione]	0.1 to 1%
O=C1CCC(N2Cc3cc(C(=O)c4cn(-c5ccccc5)c5ccccc45)ccc3C2=O)C(=O)N1 (stereo not shown) [Compound 35, 3-(1-oxo-5-(1-phenyl-1H-indole-3-carbonyl)isoindolin-2-yl)piperidine-2,6-dione]	0 to 0.1%
O=C1CCC(N2Cc3cc(C(=O)c4ccc5cn[nH]c5c4)ccc3C2=O)C(=O)N1 (stereo not shown) [Compound 21, 3-(5-(1H-indazole-6-carbonyl)-1-oxoisoindolin-2-yl)piperidine-2,6-dione]	0 to 0.1%
O=C1CCC(N2Cc3cc(C(=O)c4ccccn4)ccc3C2=O)C(=O)N1 (stereo not shown) [Compound 12, 3-(1-oxo-5-picolinoylisoindolin-2-yl)piperidine-2,6-dione]	0 to 0.1%
O=C1CCC(N2Cc3cc(C(=O)N4Cc5ccccc5C4)ccc3C2=O)C(=O)N1 (stereo not shown) [Compound 36]	0 to 0.1%
O=C1CCC(N2Cc3cc(C(=O)c4c[nH]c5ccc(-c6ccccc6)cc45)ccc3C2=O)C(=O)N1 (stereo not shown) [Compound 24, 3-(1-oxo-5-(5-phenyl-1H-indole-3-carbonyl)isoindolin-2-yl)piperidine-2,6-dione]	10 to 35%
O=C1CCC(N2Cc3cc(C(=O)c4cc(-c5ccccc5)cs4)ccc3C2=O)C(=O)N1 (stereo not shown) [Compound 30, 3-(1-oxo-5-(4-phenylthiophene-2-carbonyl)isoindolin-2-yl)piperidine-2,6-dione]	0 to 0.1%
O=C1CCC(N2Cc3cc(C(=O)c4cccc(Nc5ccccc5)c4)ccc3C2=O)C(=O)N1 (stereo not shown) [Compound 16, 3-(1-oxo-5-(3-(phenylamino)benzoyl)isoindolin-2-yl)piperidine-2,6-dione]	0 to 0.1%
O=C1CCC(N2C(=O)c3ccc(C(=O)c4cc5ccccc5[nH]4)cc3C2=O)C(=O)N1 (stereo not shown) [Compound 10, 2-(2,6-dioxopiperidin-3-yl)-5-(1H-indole-2-carbonyl)isoindoline-1,3-dione]	1 to 10%
O=C1CCC(N2Cc3cc(C(=O)c4coc5ccccc45)ccc3C2=O)C(=O)N1 (stereo not shown) [Compound 37, 3-(5-(benzofuran-3-carbonyl)-1-oxoisoindolin-2-yl)piperidine-2,6-dione]	1 to 10%
O=C1CCC(N2Cc3cc(C(=O)c4ccc(-c5ccccc5)[nH]4)ccc3C2=O)C(=O)N1 (stereo not shown) [Compound 28, 3-(1-oxo-5-(5-phenyl-1H-pyrrole-2-carbonyl)isoindolin-2-yl)piperidine-2,6-dione]	1 to 10%
CNc1ccc2cc(C(=O)c3ccc4c(c3)CN(C3CCC(=O)NC3=O)C4=O)[nH]c2c1 (stereo not shown) [Compound 22, 3-(5-(6-(methylamino)-1H-indole-2-carbonyl)-1-oxoisoindolin-2-yl)piperidine-2,6-dione]	0 to 0.1%
O=C1CCC(N2Cc3cc(C(=O)c4cc5ccccc5[nH]4)ccc3C2=O)C(=O)N1 (stereo not shown) [Compound 3, 3-(5-(1H-indole-2-carbonyl)-1-oxoisoindolin-2-yl)piperidine-2,6-dione]	0 to 0.1%
O=C1CCC(N2Cc3cc(C(=O)n4ncc5ccccc54)ccc3C2=O)C(=O)N1 (stereo not shown) [Compound 6, 3-(5-(1H-indazole-1-carbonyl)-1-oxoisoindolin-2-yl)piperidine-2,6-dione]	0 to 0.1%
O=C1CCC(N2Cc3cc(C(=O)C4CCN(Cc5ccccc5)CC4)ccc3C2=O)C(=O)N1 (stereo not shown) [Compound 11, 3-(5-(1-benzylpiperidine-4-carbonyl)-1-oxoisoindolin-2-yl)piperidine-2,6-dione]	0 to 0.1%
O=C1CCC(N2Cc3cc(C(=O)N4Cc5cccc6cccc4c56)ccc3C2=O)C(=O)N1 (stereo not shown) [Compound 31, 3-(5-(1,2-dihydrobenzo[cd]indole-1-carbonyl)-1-oxoisoindolin-2-yl)piperidine-2,6-dione]	0 to 0.1%
O=C1CCC(N2Cc3cc(C(=O)c4cccc(-c5ccccc5)c4)ccc3C2=O)C(=O)N1 (stereo not shown) [Compound 26, 3-(5-([1,1′-biphenyl]-3-carbonyl)-1-oxoisoindolin-2-yl)piperidine-2,6-dione]	0 to 0.1%
O=C1CCC(N2Cc3cc(C(=O)c4cc(-c5ccccc5)c[nH]4)ccc3C2=O)C(=O)N1 (stereo not shown) [Compound 27, 3-(1-oxo-5-(4-phenyl-1H-pyrrole-2-carbonyl)isoindolin-2-yl)piperidine-2,6-dione]	0 to 0.1%
O=C1CCC(N2Cc3cc(C(=O)c4cn(-c5ccccc5)c5ccc(-c6ccccc6)cc45)ccc3C2=O)C(=O)N1 (stereo not shown) [Compound 25, 3-(5-(1,5-diphenyl-1H-indole-3-carbonyl)-1-oxoisoindolin-2-yl)piperidine-2,6-dione]	10 to 35%
O=C1CCC(N2Cc3nc(C(=O)c4ccccc4)ccc3C2=O)C(=O)N1 (stereo not shown) [Compound 5, 3-(2-benzoyl-5-oxo-5,7-dihydro-6H-pyrrolo[3,4-b]pyridin-6-yl)piperidine-2,6-dione]	1 to 10%
O=C1CCC(N2Cc3cc(C(=O)N4CCCC4)ccc3C2=O)C(=O)N1 (stereo not shown) [Compound 7, 3-(1-oxo-5-(pyrrolidine-1-carbonyl)isoindolin-2-yl)piperidine-2,6-dione]	0 to 0.1%
O=C1CCC(N2Cc3cc(C(=O)c4n[nH]c5ccccc45)ccc3C2=O)C(=O)N1 (stereo not shown) [Compound 17, 3-(5-(1H-indazole-3-carbonyl)-1-oxoisoindolin-2-yl)piperidine-2,6-dione]	0 to 0.1%
